“And” between values parts separate entries of the source, which are not always exact repeats. Identical values can stand only once. Inconclusive results and toxic doses are left out.
Test system: BDF1 mice, P388 leukemia ip, median survival T/C
Test: NCI In Vivo Anticancer Drug Screen. Data for tumor model P388 Leukemia (intraperitoneal) in B6D2F1 (BDF1) mice
Conditions: endpoint: median survival time, higher = longer survival
Method in brief: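 Transplantable tumour in mice; compound vs vehicle dosing; survival scored; ratio of treated to control reported.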

[1] = dose: 200.0 mg/kg/injection, schedule: Q04DX003 (ip), vehicle: saline with Tween-80
[2] = dose: 400.0 mg/kg/injection, schedule: Q04DX003 (ip), vehicle: saline with Tween-80
[3] = dose: 6.25 mg/kg/injection, schedule: Q01DX009 (ip), vehicle: saline
[4] = dose: 12.5 mg/kg/injection, schedule: Q01DX009 (ip), vehicle: saline
[5] = dose: 25.0 mg/kg/injection, schedule: Q01DX009 (ip), vehicle: saline
[6] = dose: 25.0 mg/kg/injection, schedule: Q04DX003 (ip), vehicle: saline
[7] = dose: 50.0 mg/kg/injection, schedule: Q01DX009 (ip), vehicle: saline
[8] = dose: 50.0 mg/kg/injection, schedule: Q04DX003 (ip), vehicle: saline
[9] = dose: 100.0 mg/kg/injection, schedule: Q01DX009 (ip), vehicle: saline
[10] = dose: 100.0 mg/kg/injection, schedule: Q04DX003 (ip), vehicle: saline
[11] = dose: 200.0 mg/kg/injection, schedule: Q01DX009 (ip), vehicle: saline
[12] = dose: 200.0 mg/kg/injection, schedule: Q04DX003 (ip), vehicle: saline
[13] = dose: 400.0 mg/kg/injection, schedule: Q01DX009 (ip), vehicle: saline
[14] = dose: 400.0 mg/kg/injection, schedule: Q04DX003 (ip), vehicle: saline
[15] = dose: 50.0 mg/kg/injection, schedule: Q01DX009 (ip), vehicle: Klucel (hydroxypropylcellulose) (HPC)
[16] = dose: 100.0 mg/kg/injection, schedule: Q01DX009 (ip), vehicle: Klucel (hydroxypropylcellulose) (HPC)
[17] = dose: 100.0 mg/kg/injection, schedule: Q04DX003 (ip), vehicle: Klucel (hydroxypropylcellulose) (HPC)
[18] = dose: 200.0 mg/kg/injection, schedule: Q01DX009 (ip), vehicle: Klucel (hydroxypropylcellulose) (HPC)
[19] = dose: 200.0 mg/kg/injection, schedule: Q04DX003 (ip), vehicle: Klucel (hydroxypropylcellulose) (HPC)
[20] = dose: 6.25 mg/kg/injection, schedule: Q01DX009 (ip), vehicle: saline with Tween-80
[21] = dose: 50.0 mg/kg/injection, schedule: Q01DX009 (ip), vehicle: saline with Tween-80
[22] = dose: 100.0 mg/kg/injection, schedule: Q04DX003 (ip), vehicle: saline with Tween-80

CN1CCN(c2ccc([N+](=O)[O-])c3nonc23)CC1
T/C (dose: 10.0 mg/kg/injection, schedule: Q01DX009 (ip), vehicle: saline with Tween-80): 100 % of control
T/C (dose: 20.0 mg/kg/injection, schedule: Q01DX009 (ip), vehicle: saline with Tween-80): 100 % of control
T/C (dose: 20.0 mg/kg/injection, schedule: Q04DX003 (ip), vehicle: saline with Tween-80): 100 % of control
T/C (dose: 40.0 mg/kg/injection, schedule: Q01DX009 (ip), vehicle: saline with Tween-80): 99 % of control
T/C (dose: 40.0 mg/kg/injection, schedule: Q04DX003 (ip), vehicle: saline with Tween-80): 92 % of control

O=C(Nc1ccc(Cl)cc1C(=O)c1ccccn1)c1ccccc1
T/C [1]: 120 % of control
T/C [2]: 110 % of control

COc1ccc(C(C#N)CC(=O)c2ccc(OC)c(OCc3ccccc3)c2)cc1OC (configuration not stated)
T/C [3]: 90 % of control
T/C [4]: 95 % of control
T/C [5]: 91 % of control
T/C [6]: 114 % of control
T/C [7]: 99 % of control
T/C [8]: 96 % of control
T/C [9]: 90 % of control
T/C [10]: 96 % of control
T/C [11]: 86 % of control
T/C [12]: 107 % of control
T/C [13]: 95 % of control
T/C [14]: 100 % of control

C[C@@H]1C[C@H]2C(=CC1=O)CC[C@@H]1[C@@H]2CC[C@@]2(C)[C@H]1CC[C@]2(C)O
T/C [15]: 95 % of control
T/C (dose: 50.0 mg/kg/injection, schedule: Q04DX003 (ip), vehicle: Klucel (hydroxypropylcellulose) (HPC)): 91 % of control
T/C [16]: 87 % of control
T/C [17]: 91 % of control and 103 % of control
T/C [18]: 108 % of control
T/C [19]: 96 % of control and 100 % of control

CCN(CC)CCNc1ccc(COC(=O)NC)c2sc3ccccc3c(=O)c12
T/C [20]: 166 % of control

COc1ccc([I+]c2ccccc2)cc1
T/C (dose: 1.56 mg/kg/injection, schedule: Q01DX009 (ip), vehicle: saline): 87 % of control
T/C (dose: 3.13 mg/kg/injection, schedule: Q01DX009 (ip), vehicle: saline): 104 % of control
T/C [3]: 112 % of control and 120 % of control
T/C (dose: 12.5 mg/kg/injection, schedule: Q04DX003 (ip), vehicle: saline sonified): 105 % of control
T/C (dose: 25.0 mg/kg/injection, schedule: Q04DX003 (ip), vehicle: saline sonified): 110 % of control

N#C/C(=C\c1cc(Cl)cc(Cl)c1O)c1nc2ccccc2[nH]1
T/C [21]: 93 % of control
T/C (dose: 100.0 mg/kg/injection, schedule: Q01DX009 (ip), vehicle: saline with Tween-80): 93 % of control

Nc1ccc(S(=O)(=O)N/N=C/c2ccccc2[N+](=O)[O-])cc1
T/C [20]: 95 % of control
T/C (dose: 12.5 mg/kg/injection, schedule: Q01DX009 (ip), vehicle: saline with Tween-80): 100 % of control
T/C (dose: 25.0 mg/kg/injection, schedule: Q01DX009 (ip), vehicle: saline with Tween-80): 101 % of control

C[C@]12CC[C@@H]3c4ccccc4CC[C@H]3[C@@H]1CC[C@@H]2O
T/C [22]: 90 % of control
T/C [1]: 90 % of control
T/C [2]: 100 % of control

O=C1CC(Cl)C(=O)N1c1ccccc1 (configuration not stated)
T/C (dose: 75.0 mg/kg/injection, schedule: Q04DX003 (ip), vehicle: saline with Tween-80): 108 % of control
T/C (dose: 150.0 mg/kg/injection, schedule: Q04DX003 (ip), vehicle: saline with Tween-80): 104 % of control
T/C (dose: 300.0 mg/kg/injection, schedule: Q04DX003 (ip), vehicle: saline with Tween-80): 104 % of control

Cc1nccn1C[c-]1[c-][c-][c-][c-]1.[Fe].[c-]1[c-][c-][cH-][c-]1
T/C [3]: 108 % of control
T/C [4]: 99 % of control
T/C [5]: 100 % of control

CN(C)/N=N/c1nc[nH]c1C(N)=O
T/C (dose: 25.0 mg/kg/injection, schedule: Q01DX010 (ip), vehicle: saline): 116 % of control
T/C [15]: 100 % of control and 108 % of control and 123 % of control
T/C (dose: 50.0 mg/kg/injection, schedule: Q01DX010 (ip), vehicle: saline): 100 % of control
T/C [16]: 92 % of control and 97 % of control and 100 % of control
T/C [18]: 100 % of control (2×) and 115 % of control
T/C (dose: 208.0 mg/kg/injection, schedule: Q01DX001 (ip), vehicle: carboxymethylcellulose (CMC)): 109 % of control
T/C (dose: 275.0 mg/kg/injection, schedule: Q01DX001 (ip), vehicle: carboxymethylcellulose (CMC)): 110 % of control and 116 % of control
T/C (dose: 400.0 mg/kg/injection, schedule: Q01DX009 (ip), vehicle: Klucel (hydroxypropylcellulose) (HPC)): 115 % of control and 122 % of control and 123 % of control
T/C (dose: 418.0 mg/kg/injection, schedule: Q01DX001 (ip), vehicle: carboxymethylcellulose (CMC)): 119 % of control
T/C (dose: 775.0 mg/kg/injection, schedule: Q01DX001 (ip), vehicle: carboxymethylcellulose (CMC)): 158 % of control

O=C(Cn1cc(F)c(=O)[nH]c1=O)c1ccco1
T/C [9]: 100 % of control
T/C [10]: 111 % of control
T/C [11]: 95 % of control
T/C [12]: 105 % of control and 122 % of control
T/C [13]: 100 % of control
T/C [14]: 86 % of control
T/C (dose: 600.0 mg/kg/injection, schedule: Q04DX003 (ip), vehicle: saline): 95 % of control

C[n+]1cc2ccccc2c2ccccc21
T/C (dose: 12.5 mg/kg/injection, schedule: Q01DX009 (ip), vehicle: water): 95 % of control and 109 % of control
T/C (dose: 12.5 mg/kg/injection, schedule: Q04DX003 (ip), vehicle: water): 105 % of control
T/C (dose: 15.0 mg/kg/injection, schedule: Q01DX009 (ip), vehicle: water): 108 % of control
T/C (dose: 25.0 mg/kg/injection, schedule: Q01DX009 (ip), vehicle: water): 101 % of control and 115 % of control
T/C (dose: 25.0 mg/kg/injection, schedule: Q04DX003 (ip), vehicle: water): 114 % of control

O=[N+]([O-])c1cc([N+](=O)[O-])c(Nn2c3ccccc3c3ccccc32)c([N+](=O)[O-])c1
T/C (dose: 6.25 mg/kg/injection, schedule: Q01DX009 (ip), vehicle: Klucel (hydroxypropylcellulose) (HPC)): 100 % of control
T/C (dose: 12.5 mg/kg/injection, schedule: Q01DX009 (ip), vehicle: Klucel (hydroxypropylcellulose) (HPC)): 90 % of control and 100 % of control
T/C (dose: 25.0 mg/kg/injection, schedule: Q01DX009 (ip), vehicle: Klucel (hydroxypropylcellulose) (HPC)): 100 % of control and 110 % of control
T/C [15]: 120 % of control
T/C [16]: 100 % of control
T/C [17]: 100 % of control
T/C [18]: 95 % of control
T/C [19]: 113 % of control

CN(C=C(C#N)C#N)c1ccccc1
T/C [21]: 105 % of control

CCOC(=O)c1nc2nc(Cl)c(Cl)nc2[nH]1
T/C (dose: 4.0 mg/kg/injection, schedule: Q01DX009 (ip), vehicle: saline): 90 % of control
T/C [6]: 93 % of control
T/C (dose: 32.0 mg/kg/injection, schedule: Q01DX009 (ip), vehicle: saline): 89 % of control
T/C [8]: 98 % of control
T/C [10]: 102 % of control
T/C [12]: 93 % of control

CCCn1c(C)nc2cc(C(F)(F)F)cc(N)c21
T/C [22]: 103 % of control
T/C [1]: 92 % of control
T/C [2]: 97 % of control

CC(C(=O)O)S(=O)(=O)c1ccccc1 (configuration not stated)
T/C (dose: 100.0 mg/kg/injection, schedule: Q04DX002 (ip), vehicle: saline with Tween-80): 93 % of control
T/C (dose: 200.0 mg/kg/injection, schedule: Q04DX002 (ip), vehicle: saline with Tween-80): 102 % of control

NC(=NCCCC(NC(=O)OCc1ccccc1)C(=O)NC(Cc1ccccc1)C(=O)OCc1ccccc1)NC(=O)OCc1ccccc1 (configuration not stated)
T/C (dose: 12.5 mg/kg/injection, schedule: Q01DX005 (ip), vehicle: saline with Tween-80): 92 % of control
T/C (dose: 25.0 mg/kg/injection, schedule: Q01DX005 (ip), vehicle: saline with Tween-80): 92 % of control
T/C (dose: 50.0 mg/kg/injection, schedule: Q01DX005 (ip), vehicle: saline with Tween-80): 90 % of control and 101 % of control
T/C (dose: 100.0 mg/kg/injection, schedule: Q01DX005 (ip), vehicle: saline with Tween-80): 97 % of control
T/C (dose: 200.0 mg/kg/injection, schedule: Q01DX005 (ip), vehicle: saline with Tween-80): 107 % of control

CN1N=Nc2cccc3cccc1c23
T/C [5]: 105 % of control
T/C [7]: 100 % of control
T/C [9]: 105 % of control

CN=C(N)NCCCCCCCCNC(N)=NC
T/C [3]: 110 % of control
T/C [4]: 122 % of control

From PubChem BioAssay AID328 (DTP/NCI, 2004)
